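How tested: cells in 96-well plates exposed to compound for 48 hours at five concentrations. GI50 = concentration required for 50% inhibition of growth.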 Calls of active or inactive are those of the source. Cut-off read from the data, not from the text of the source: active = GI50 up to about 1.1 µM and inactive = higher.
Experiments:
Assay in all cases: NCI tumour cell line growth inhibition, 48 h
[1] = test system: HOP-62
[2] = test system: KM12
[3] = test system: UACC-257
[4] = test system: NCI/ADR-RES
[5] = test system: RPMI-8226
[6] = test system: SNB-75
[7] = test system: SK-MEL-5
[8] = test system: SK-OV-3
[9] = test system: SF-295
[10] = test system: M14
[11] = test system: IGROV-1
[12] = test system: A549
[13] = test system: SN12C
[14] = test system: T47D
[15] = test system: MCF7
[16] = test system: MDA-MB-231
[17] = test system: SNB-19
[18] = test system: UO-31

Measured: GI50

NC(=O)c1nnc2cc(F)ccc2c1N
inactive: [1] > 100 µM | [2] > 100 µM | [3] > 100 µM | [4] > 100 µM | [5] > 100 µM | [6] > 100 µM | [7] > 100 µM | [8] 85.5 µM | [9] > 100 µM | [10] > 100 µM | [11] > 100 µM | [12] > 100 µM | [13] > 100 µM | [14] > 100 µM | [15] > 100 µM | [16] > 100 µM | [17] > 100 µM | [18] 67.3 µM

Nc1ncnc2c1ncc(=O)n2C1CC(O)C(CO)O1 (configuration not stated)
inactive: [1] > 100 µM | [2] > 100 µM | [3] > 100 µM | [4] > 100 µM | [5] > 100 µM | [6] > 100 µM | [7] > 100 µM | [8] > 100 µM | [9] 65.6 µM | [10] > 100 µM | [11] > 100 µM | [12] > 100 µM | [13] > 100 µM | [14] > 100 µM | [15] > 100 µM | [16] > 100 µM | [17] > 100 µM | [18] > 100 µM

O/N=C\c1c2c(cc3c1CCC3)CCC2
inactive: [1] > 100 µM | [2] > 100 µM | [3] > 100 µM | [4] > 100 µM | [5] > 100 µM | [6] 36.5 µM | [7] > 100 µM | [8] > 100 µM | [9] > 100 µM | [10] > 100 µM | [11] > 100 µM | [12] > 100 µM | [13] > 100 µM | [14] 49.5 µM | [15] > 100 µM | [16] > 100 µM | [17] > 100 µM | [18] > 100 µM

OC1(c2ccc(Cl)cc2)c2ccccc2C2=NCc3ccccc3CN21 (configuration not stated)
inactive: [1] 6.47 µM | [2] 4.7 µM | [3] 14.3 µM | [4] 13.1 µM | [5] > 21.3 µM | [6] 6.35 µM | [7] 13.2 µM | [8] 1.22 µM | [9] 15.3 µM | [10] 2.96 µM | [11] 3.75 µM | [12] 4.58 µM | [13] 17.5 µM | [14] 23.3 µM | [15] 4.8 µM | [16] 16.6 µM | [17] 3.51 µM | [18] 7.98 µM

From ChEMBL document CHEMBL1201862, “PubChem BioAssay data set” (2004)
